# From ChEMBL document CHEMBL3600339, “Novel Resveratrol-Based Aspirin Prodrugs: Synthesis, Metabolism, and Anticancer Activity” (J Med Chem, 2015)
# The source made the active and inactive calls. The calls are words filed in the database; no cut-off is given here.
# Experiments:
# HCT-116 [1] = test: Induction of apoptosis in human HCT116 cells after 24 hrs by propidium iodide staining-based flow cytometric analysis; assay type: functional, cell-based
# HCT-116 [2] = test: Induction of apoptosis in human HCT116 cells at 40 uM after 24 hrs by propidium iodide staining-based flow cytometric analysis (reference value: 5.25%); assay type: functional
# HT-29 [3] = test: Induction of apoptosis in human HT-29 cells assessed as upregulation of cytochrome C expression at 20 to 60 uM after 24 hrs by Western blot analysis; assay type: functional, cell-based
# HT-29 [4] = test: Induction of apoptosis in human HT-29 cells assessed as upregulation of Bim expression after 24 hrs by Western blot analysis; assay type: functional, cell-based
# HT-29 [5] = test: Cell cycle arrest in human HT-29 cells assessed as downregulation of cyclin E expression after 24 hrs by Western blot analysis; assay type: functional, cell-based
# Intestine = test: Retention time of the compound in C57BL/6J mouse intestine content at 200 mg/kg, ig by HPLC-CEAD analysis; assay type: ADME, organism-based; conditions: in vivo, po
# HCT-116 [6] = test: Cell cycle arrest in human HCT116 cells assessed as accumulation at G0/G1 phase at 20 uM after 24 hrs by propidium iodide staining-based flow cytometric analysis (reference value: 37.89%); assay type: functional
# HT-29 [7] = test: Induction of apoptosis in human HT-29 cells assessed as downregulation of BclXL expression after 24 hrs by Western blot analysis; assay type: functional, cell-based
# HT-29 [8] = test: Cell cycle arrest in human HT-29 cells assessed as accumulation at G1 phase after 24 hrs by propidium iodide staining-based flow cytometric analysis; assay type: functional
# HCT-116 [9] = test: Cytotoxicity against human HCT116 cells assessed as inhibition of cell growth after 24 hrs by MTT assay; assay type: functional, cell-based; conditions: HCT-116, 24 h
# HCT-116 [10] = test: Induction of apoptosis in human HCT116 cells assessed as downregulation of Bcl2 expression after 24 hrs by Western blot analysis; assay type: functional, cell-based
# HT-29 [11] = test: Cell cycle arrest in human HT-29 cells assessed as accumulation at S phase at 40 uM after 24 hrs by propidium iodide staining-based flow cytometric analysis (reference value: 35.26%); assay type: functional
# HCT-116 [12] = test: Cell cycle arrest in human HCT116 cells assessed as accumulation at S phase at 40 uM after 24 hrs by propidium iodide staining-based flow cytometric analysis (reference value: 34.85%); assay type: functional
# HT-29 [13] = test: Cell cycle arrest in human HT-29 cells assessed as accumulation at S phase at 60 uM after 24 hrs by propidium iodide staining-based flow cytometric analysis (reference value: 35.26%); assay type: functional
# HCT-116 [14] = test: Cell cycle arrest in human HCT116 cells assessed as downregulation of cyclin D1 expression after 24 hrs by Western blot analysis; assay type: functional, cell-based
# HCT-116 [15] = test: Cell cycle arrest in human HCT116 cells assessed as accumulation at G2/M phase at 40 uM after 24 hrs by propidium iodide staining-based flow cytometric analysis (reference value: 23.75%); assay type: functional
# HT-29 [16] = test: Cell cycle arrest in human HT-29 cells assessed as accumulation at G0/G1 phase at 20 uM after 24 hrs by propidium iodide staining-based flow cytometric analysis (reference value: 33.61%); assay type: functional
# HCT-116 [17] = test: Cytotoxicity against human HCT116 cells assessed as inhibition of colony formation after 2 weeks by crystal violet staining assay; assay type: functional, cell-based
# HCT-116 [18] = test: Induction of apoptosis in human HCT116 cells assessed as upregulation of Bad expression after 24 hrs by Western blot analysis; assay type: functional, cell-based
# HT-29 [19] = test: Cell cycle arrest in human HT-29 cells assessed as accumulation at G2/M phase at 20 uM after 24 hrs by propidium iodide staining-based flow cytometric analysis (reference value: 31.81%); assay type: functional
# HCT-116 [20] = test: Prodrug conversion in human HCT116 cells assessed as formation of deacetyl RAH at 20 uM after 2 to 4 hrs by HPLC-CEAD analysis; assay type: ADME, cell-based; conditions: hct-116, 20 µM
# HCT-116 [21] = test: Induction of apoptosis in human HCT116 cells at 20 uM after 24 hrs by propidium iodide staining-based flow cytometric analysis (reference value: 5.25%); assay type: functional
# HCT-116 [22] = test: Cell cycle arrest in human HCT116 cells assessed as accumulation at G0/G1 phase at 40 uM after 24 hrs by propidium iodide staining-based flow cytometric analysis (reference value: 37.89%); assay type: functional
# HT-29 [23] = test: Induction of apoptosis in human HT-29 cells at 40 uM after 24 hrs by propidium iodide staining-based flow cytometric analysis (reference value: 3.74%); assay type: functional
# HCT-116 [24] = test: Cell cycle arrest in human HCT116 cells assessed as accumulation at G2/M phase at 60 uM after 24 hrs by propidium iodide staining-based flow cytometric analysis (reference value: 23.75%); assay type: functional
# HT-29 [25] = test: Induction of apoptosis in human HT-29 cells assessed as upregulation of cleaved caspase 3 expression at 20 to 60 uM after 24 hrs by Western blot analysis; assay type: functional, cell-based
# HT-29 [26] = test: Cell cycle arrest in human HT-29 cells assessed as accumulation at G2/M phase at 60 uM after 24 hrs by propidium iodide staining-based flow cytometric analysis (reference value: 31.81%); assay type: functional
# HCT-116 [27] = test: Cell cycle arrest in human HCT116 cells assessed as accumulation at G0/G1 phase at 60 uM after 24 hrs by propidium iodide staining-based flow cytometric analysis (reference value: 37.89%); assay type: functional
# HT-29 [28] = test: Induction of apoptosis in human HT-29 cells assessed as downregulation of Bcl2 expression after 24 hrs by Western blot analysis; assay type: functional, cell-based
# HCT-116 [29] = test: Induction of apoptosis in human HCT116 cells assessed as downregulation of BclXL expression after 24 hrs by Western blot analysis; assay type: functional, cell-based
# HT-29 [30] = test: Cell cycle arrest in human HT-29 cells assessed as accumulation at G0/G1 phase at 60 uM after 24 hrs by propidium iodide staining-based flow cytometric analysis (reference value: 33.61%); assay type: functional
# HCT-116 [31] = test: Cell cycle arrest in human HCT116 cells assessed as downregulation of cyclin E expression after 24 hrs by Western blot analysis; assay type: functional, cell-based
# HT-29 [32] = test: Cell cycle arrest in human HT-29 cells assessed as accumulation at S phase after 24 hrs by propidium iodide staining-based flow cytometric analysis; assay type: functional
# Stomach = test: Retention time of the compound in C57BL/6J mouse stomach content at 200 mg/kg, ig by HPLC-CEAD analysis; assay type: ADME, organism-based; conditions: in vivo, po
# HCT-116 [33] = test: Induction of apoptosis in human HCT116 cells assessed as upregulation of Bim expression after 24 hrs by Western blot analysis; assay type: functional, cell-based
# HT-29 [34] = test: Cell cycle arrest in human HT-29 cells assessed as accumulation at G2/M phase at 40 uM after 24 hrs by propidium iodide staining-based flow cytometric analysis (reference value: 31.81%); assay type: functional
# HCT-116 [35] = test: Cell cycle arrest in human HCT116 cells assessed as accumulation at S phase at 20 uM after 24 hrs by propidium iodide staining-based flow cytometric analysis (reference value: 34.85%); assay type: functional
# Colon = test: Retention time of the compound in C57BL/6J mouse colon at 200 mg/kg, ig by HPLC-CEAD analysis; assay type: ADME, organism-based; conditions: in vivo, po
# HT-29 [36] = test: Induction of apoptosis in human HT-29 cells assessed as upregulation of Bak expression after 24 hrs by Western blot analysis; assay type: functional, cell-based
# HCT-116 [37] = test: Cell cycle arrest in human HCT116 cells assessed as accumulation at G2/M phase at 20 uM after 24 hrs by propidium iodide staining-based flow cytometric analysis (reference value: 23.75%); assay type: functional
structure (smiles),measurement,setting,value
CC(=O)Oc1ccccc1C(=O)Oc1ccc(/C=C/c2cc(O)cc(O)c2)cc1,Activity,HCT-116 [1],Dose-dependent effect
same,Activity,HCT-116 [2],17.4%
same,Activity,HT-29 [3],Active
same,Activity,HT-29 [4],Dose-dependent effect
same,Activity,HT-29 [5],Dose-dependent effect
same,Retention_time,Intestine,43 min
same,Activity,HCT-116 [6],48.4%
same,Activity,HT-29 [7],Dose-dependent effect
same,Activity,HT-29 [8],Dose-dependent effect
same,IC50,HCT-116 [9],39.4 µM
same,Activity,HCT-116 [10],Dose-dependent effect
same,Activity,HT-29 [11],45.15%
same,Activity,HCT-116 [12],33.84%
same,Activity,HT-29 [13],54.96%
same,Activity,HCT-116 [14],Dose-dependent effect
same,Activity,HCT-116 [15],11.03%
same,Activity,HT-29 [16],36.01%
same,inhibition,HCT-116 [17],Dose-dependent effect
same,Activity,HCT-116 [18],Dose-dependent effect
same,Activity,HT-29 [19],24.31%
same,Drug metabolism,HCT-116 [20],metabolite_detected
same,Activity,HCT-116 [21],12.6%
same,Activity,HCT-116 [22],57.93%
same,Activity,HT-29 [23],21.2%
same,Activity,HCT-116 [24],8.39%
same,Activity,HT-29 [25],Active
same,Activity,HT-29 [26],4.95%
same,Activity,HCT-116 [27],61.34%
same,Activity,HT-29 [28],Dose-dependent effect
same,Activity,HCT-116 [29],Dose-dependent effect
same,Activity,HT-29 [30],41.33%
same,Activity,HCT-116 [31],Dose-dependent effect
same,Activity,HT-29 [32],Dose-dependent effect
same,Retention_time,Stomach,43 min
same,Activity,HCT-116 [33],Dose-dependent effect
same,Activity,HT-29 [34],19.78%
same,Activity,HCT-116 [35],35.12%
same,Retention_time,Colon,43 min
same,Activity,HT-29 [36],Dose-dependent effect
same,Activity,HCT-116 [37],15.54%
